Reference: patent US7998987B2, “Inhibitors of c-Met and uses thereof” (Vertex Pharmaceuticals Incorporated, priority 2005, dated 2011)

molecular target: c-Met (Homo sapiens, UniProt P08581); assay: Ki determination for the inhibition of c-Met kinase activity (standard coupled enzyme system); type: biochemical; settings: coupled enzyme system, 200 μM ATP, 10 μM polyGluTyr, 80 nM c-Met, 30° C.; read-out: c-Met Ki
Procedure: Ki Determination for the Inhibition of c-Met
Reactions were carried out in a solution containing 100 mM HEPES (pH 7.5), 10 mM MgCl2, 25 mM NaCl, 300 μM NADH, 1 mM DTT, and 1.5% DMSO. Final substrate concentrations in the assay were 200 μM ATP (Sigma Chemicals, St Louis, Mo.) and 10 μM polyGluTyr (Sigma Chemical Company, St. Louis). Reactions were carried out at 30° C. and 80 nM c-Met. Final concentrations of the components of the coupled enzyme system were 2.5 mM phosphoenolpyruvate, 300 μM NADH, 30 μg/ml pyruvate kinase and 10 μg/ml lactate dehydrogenase.
An assay stock buffer solution was prepared containing all of the reagents listed above with the exception of ATP and a test compound of the present invention. […] The reaction was initiated by the addition of 20 μL of ATP (final concentration 200 μM). Rates of reaction were obtained using a Molecular Devices Spectramax plate reader (Sunnyvale, Calif.) over 10 minutes at 30° C. The Ki values were determined from the rate data as a function of inhibitor concentration.

Sequence of c-Met (P08581 25-1390): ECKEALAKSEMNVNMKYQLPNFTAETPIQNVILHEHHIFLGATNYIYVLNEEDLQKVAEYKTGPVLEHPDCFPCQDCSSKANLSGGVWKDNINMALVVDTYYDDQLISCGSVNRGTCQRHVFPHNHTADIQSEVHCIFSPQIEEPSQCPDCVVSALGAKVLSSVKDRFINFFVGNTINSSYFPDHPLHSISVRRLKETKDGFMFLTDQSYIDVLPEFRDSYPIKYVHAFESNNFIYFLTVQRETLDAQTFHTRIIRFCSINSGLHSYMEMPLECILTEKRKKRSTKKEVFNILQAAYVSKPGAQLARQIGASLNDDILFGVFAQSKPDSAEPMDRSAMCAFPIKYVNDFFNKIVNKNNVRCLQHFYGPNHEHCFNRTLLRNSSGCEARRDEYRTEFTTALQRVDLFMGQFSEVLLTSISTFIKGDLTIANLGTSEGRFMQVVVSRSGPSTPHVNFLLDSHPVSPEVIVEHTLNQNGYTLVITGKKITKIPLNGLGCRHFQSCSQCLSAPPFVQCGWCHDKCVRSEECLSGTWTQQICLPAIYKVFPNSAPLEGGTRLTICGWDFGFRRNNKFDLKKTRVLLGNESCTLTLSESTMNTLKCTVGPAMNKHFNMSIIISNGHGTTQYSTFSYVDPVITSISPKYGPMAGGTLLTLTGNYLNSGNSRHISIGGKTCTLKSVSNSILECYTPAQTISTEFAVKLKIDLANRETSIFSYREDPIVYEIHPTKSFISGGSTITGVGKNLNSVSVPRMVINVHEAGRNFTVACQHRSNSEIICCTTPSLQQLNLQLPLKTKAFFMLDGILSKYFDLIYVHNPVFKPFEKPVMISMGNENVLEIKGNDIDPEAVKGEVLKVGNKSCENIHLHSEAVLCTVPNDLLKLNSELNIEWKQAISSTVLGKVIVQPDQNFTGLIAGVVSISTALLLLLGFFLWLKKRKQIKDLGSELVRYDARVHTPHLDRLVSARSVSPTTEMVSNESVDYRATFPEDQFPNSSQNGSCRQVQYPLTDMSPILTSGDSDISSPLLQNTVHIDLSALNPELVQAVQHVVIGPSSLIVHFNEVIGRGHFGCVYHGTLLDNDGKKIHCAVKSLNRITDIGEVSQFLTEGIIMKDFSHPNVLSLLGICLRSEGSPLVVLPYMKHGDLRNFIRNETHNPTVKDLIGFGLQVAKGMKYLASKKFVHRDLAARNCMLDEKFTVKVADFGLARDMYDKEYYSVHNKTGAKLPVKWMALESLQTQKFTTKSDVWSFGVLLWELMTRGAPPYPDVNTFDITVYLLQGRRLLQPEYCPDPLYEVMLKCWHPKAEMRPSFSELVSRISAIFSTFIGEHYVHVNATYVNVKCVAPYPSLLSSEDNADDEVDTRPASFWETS

`Nc1nn2c(Cc3ccc(OCc4ccccc4)cc3)nnc2s1` [Compound 1] and `COc1ccc(Cc2nnc3sc(Cc4ccccc4)nn23)cc1` [Compound 21] cannot be ordered by Ki: greater than 2 µM for the first, greater than 2 µM for the second.

`c1csc(-c2nn3c(Cc4ccc5c(c4)OCO5)nnc3s2)c1` [Compound 2, 3-((benzo[d][1,3]dioxol-5-yl)methyl)-6-(thiophen-2-yl)-[1,2,4]triazolo[3,4-b][1,3,4]thiadiazole] and `COc1ccccc1Nc1nn2c(Cc3ccc4c(c3)OCO4)nnc2s1` [Compound 28] fall in the same range of Ki: 0.1 to 2 µM for the first, 0.1 to 2 µM for the second.

First: COc1ccc(Cc2nnc3sc(-c4ccccc4)nn23)cc1 [Compound 3]
Second: COc1ccc(Cc2nnc3sc(-c4ccccn4)nn23)cc1 [Compound 20]
The Ki of the first is higher: greater than 2 µM for the first, 0.1 to 2 µM for the second. The second binds more tightly here.

`Nc1nn2c(Cc3ccc(O)cc3)nnc2s1` [Compound 7] and `CNc1nn2c(Cc3ccc(O)cc3)nnc2s1` [Compound 14] fall in the same range of Ki: 0.1 to 2 µM for the first, 0.1 to 2 µM for the second.

`Oc1ccc(Cc2nnc3sc(NCc4ccccc4)nn23)cc1` [Compound 8] and `Oc1ccc(Cc2nnc3sc(NCc4cccnc4)nn23)cc1` [Compound 9] fall in the same range of Ki: 0.1 to 2 µM for the first, 0.1 to 2 µM for the second.

Compared with `Oc1ccc(Cc2nnc3sc(Nc4ccccn4)nn23)cc1` [Compound 10], `COc1ccccc1Nc1nn2c(Cc3ccc(O)cc3)nnc2s1` [Compound 29] is lower in Ki: greater than 2 µM for the first, 0.1 to 2 µM for the second.

`COCC1CCCN1c1nn2c(Cc3ccc(OC)cc3)nnc2s1` (stereo not drawn) [Compound 12] and `COc1ccc(Cc2nnc3sc(C4CCCCN4)nn23)cc1` (stereo not drawn) [Compound 24] cannot be ordered by Ki: greater than 2 µM for the first, greater than 2 µM for the second.

First: Oc1ccc(Cc2nnc3sc(NCCN4CCOCC4)nn23)cc1 [Compound 15]
Second: Oc1ccc(Cc2nnc3sc(NCC4CCCO4)nn23)cc1 (stereo not drawn) [Compound 17]
The Ki of the first is higher: greater than 2 µM for the first, 0.1 to 2 µM for the second. The second binds more tightly here.

`COC(=O)c1ccc(Nc2nn3c(Cc4ccc(O)cc4)nnc3s2)cc1` [Compound 16] and `Oc1ccc(Cc2nnc3sc(Nc4ccc(F)cc4)nn23)cc1` [Compound 46] cannot be ordered by Ki: less than 0.1 µM for the first, less than 0.1 µM for the second.

Going from `N#Cc1cccc(Nc2nn3c(Cc4ccc(O)cc4)nnc3s2)c1` [Compound 18] to `Cc1cccc(Nc2nn3c(Cc4ccc(O)cc4)nnc3s2)c1` [Compound 44], the Ki falls from greater than 2 µM to less than 0.1 µM.

`Oc1ccc(Cc2nnc3sc(NC4CC4)nn23)cc1` [Compound 19] and `CN(C)c1nn2c(Cc3ccc(O)cc3)nnc2s1` [Compound 41] cannot be ordered by Ki: greater than 2 µM for the first, greater than 2 µM for the second.

First: COc1ccc(Cc2nnc3sc(-c4cccs4)nn23)cc1 [Compound 22]
Second: COc1ccc(Cc2nnc3sc(CNC(C)=O)nn23)cc1 [Compound 23]
The Ki of the first is lower: 0.1 to 2 µM for the first, greater than 2 µM for the second.

First: COc1cc(Cc2nnc3sc(Nc4ccccc4)nn23)ccc1O [Compound 26]
Second: COc1cc(Cc2nnc3sc(Nc4ccccc4OC)nn23)ccc1O [Compound 33]
The Ki of the first is lower: 0.1 to 2 µM for the first, greater than 2 µM for the second.

`COc1ccccc1Nc1nn2c(Cc3ccc(O)c(F)c3)nnc2s1` [Compound 30] and `COc1ccccc1Nc1nn2c(Cc3ccc(O)c(Cl)c3)nnc2s1` [Compound 31] fall in the same range of Ki: 0.1 to 2 µM for the first, 0.1 to 2 µM for the second.

First: COc1ccccc1Nc1nn2c(C(C)c3ccc(O)cc3)nnc2s1 (stereo not drawn) [Compound 32]
Second: COc1cccc(Nc2nn3c(C(C)c4ccc(O)cc4)nnc3s2)c1 (stereo not drawn) [Compound 37]
The Ki of the first is higher: 0.1 to 2 µM for the first, less than 0.1 µM for the second. The second binds more tightly here.

`COc1cccc(Nc2nn3c(Cc4ccc5c(c4)OCO5)nnc3s2)c1` [Compound 34] and `COc1cccc(Nc2nn3c(Cc4ccc(O)c(F)c4)nnc3s2)c1` [Compound 35] fall in the same range of Ki: 0.1 to 2 µM for the first, 0.1 to 2 µM for the second.

`COc1cccc(Nc2nn3c(Cc4ccc(O)c(Cl)c4)nnc3s2)c1` [Compound 36] and `COc1cccc(Nc2nn3c(Cc4ccc(O)c(OC)c4)nnc3s2)c1` [Compound 38] fall in the same range of Ki: 0.1 to 2 µM for the first, 0.1 to 2 µM for the second.

First: COc1ccc(Nc2nn3c(Cc4ccc(O)c(Cl)c4)nnc3s2)cc1 [Compound 39]
Second: Oc1ccc(Cc2nnc3sc(Nc4cccc(Cl)c4Cl)nn23)cc1 [Compound 45]
The Ki of the first is higher: 0.1 to 2 µM for the first, less than 0.1 µM for the second.

`COc1ccc(Nc2nn3c(C(C)c4ccc(O)cc4)nnc3s2)cc1` (stereo not drawn) [Compound 40] and `Oc1ccc(Cc2nnc3sc(Nc4ccc(C(F)(F)F)cc4)nn23)cc1` [Compound 43] cannot be ordered by Ki: less than 0.1 µM for the first, less than 0.1 µM for the second.

Compound `c1cc2c(cc1Cc1nnc3sc(NCC4CCCO4)nn13)OCO2` (stereo not drawn) [Compound 42] has a Ki greater than 2 µM.
